Experimental findings from patent US20260193644A1, “Compositions and Methods For Modulation of Tumor Suppressors and Oncogenes” (FLAGSHIP PIONEERING INNOVATIONS VII, LLC, priority 2022, published 2026) are described below.

Where “and” joins values, the source holds several entries; their conditions need not be identical. Identical values can stand only once.

One assay has as its system HCT116 cells. Description: WST-1 proliferation assay on HCT116 cells treated with peptide. The assay is classed as cell-based. How it is done: Proliferation: HCT-116 cells were plated in 96 well plate (5,000 cells/well) grown in standard media supplemented with 10% FBS. After 48 hours incubation at 37° C. (5% CO2), the cells are subjected to the WST-1 ([…]) assay. The WST-1 assay (Sigma) is a measure of the metabolic activity (i.e. proliferative rate) of cells. […]
In general terms: Tetrazolium dyes change colour on reduction, which living cells bring about.

The test system of the next assay is U2OS cells. Description: WST-1 proliferation assay on U2OS cells treated with peptide. The assay is classed as cell-based.
Setting [1] is: Low sera (continued), 0.5 uM, head 3 SD.
The mark [2] stands for this setting: Low sera (continued), 0.1 uM, head 2 SD.
The mark [3] stands for this setting: Low sera (continued), 0.1 uM, head 4 SD.

With “SEQ ID NO: 28759: peptide hit of Table E; sequence only in Sequence Listing (MKKSCRWVFFLITKSLFKETVA; listed as Homo sapiens)”, the “proliferation hit score, High sera” value in the assay with HCT116 cells (0.5 uM, head 3 SD) is −1.466 SD; with HCT116 cells (5 uM, head 3 sd) it was −1.78 SD; with U2OS cells (5 uM, head 5 SD) it was 1.2 SD. For the same molecule, the “proliferation hit score, Low sera” value is given as 0.5212 SD in the assay on HCT116 cells (setting [1]); −3.329 SD in the assay on HCT116 cells (Low sera, 5 uM, head 2 SD); −1.934 SD in the assay on U2OS cells (setting [1]); −4.99 SD with U2OS cells (Low sera, 5 uM, head 2 SD).
In the case of “SEQ ID NO: 29230: peptide hit of Table E; sequence only in Sequence Listing (REQVPGMGGKSWLFFYSLVFCALLPLPRREDPFKLF; listed as Homo sapiens)”, the “proliferation hit score, High sera” value in the assay with HCT116 cells (0.1 uM, head 3 SD) is given as 2.159 SD; in the assay on HCT116 cells (1 uM, head 2 SD), −0.4364 SD; with HCT116 cells (10 uM, head 4 SD), 0.2713 SD; in the assay with U2OS cells (1 uM, head 5 SD) it was −5.771 SD; with U2OS cells (10 uM, head 8 SD), −5.758 SD. Moreover, the “proliferation hit score, Low sera” value in the assay with HCT116 cells (Low sera, 1 uM, head 3 SD) is −1.09 SD; in the assay with HCT116 cells (Low sera, 10 uM, head 3 SD), −2.162 SD; in the assay on U2OS cells (setting [2]), −2.296 SD; in the assay with U2OS cells (setting [3]), 2.01 SD; with U2OS cells (Low sera, 1 uM, head 5 SD), 3.875 SD; in the assay on U2OS cells (Low sera, 10 uM, head 6 SD) it was 2.682 SD.
With “SEQ ID NO: 33599: ORF peptide; sequence only in Sequence Listing (MCLGLLFCFMPLSLVVSSEEARFKVAADLCGFATGNSW; listed as Homo sapiens)”, the “proliferation hit score, High sera” value is reported as 0.5427 SD in the assay on HCT116 cells (0.1 uM, head 3 SD); −0.6105 SD in the assay with HCT116 cells (1 uM, head 2 SD); −4.843 SD in the assay with HCT116 cells (10 uM, head 4 SD); −2.566 SD in the assay with U2OS cells (1 uM, head 5 SD); −14.68 SD in the assay on U2OS cells (10 uM, head 8 SD). Moreover, the “proliferation hit score, Low sera” value is on record as −0.9914 SD with HCT116 cells (Low sera, 1 uM, head 3 SD); −5.29 SD in the assay with HCT116 cells (Low sera, 10 uM, head 3 SD); −0.8886 SD in the assay with U2OS cells (setting [2]); 2.01 SD with U2OS cells (setting [3]); 4.323 SD in the assay on U2OS cells (Low sera, 1 uM, head 5 SD); −8.391 SD with U2OS cells (Low sera, 10 uM, head 6 SD).
Regarding “SEQ ID NO: 33681: peptide hit of Table E; sequence only in Sequence Listing (IMAIFFFFCIIVSSLPTAELGTENACSTCLLNE; listed as Homo sapiens)”, the “proliferation hit score, High sera” value is listed as 0.9926 SD in the assay on HCT116 cells (0.1 uM, head 3 SD); −3.672 SD in the assay with HCT116 cells (1 uM, head 2 SD); −8.606 SD in the assay with HCT116 cells (10 uM, head 4 SD); −0.8283 SD in the assay with U2OS cells (1 uM, head 5 SD); −10.57 SD with U2OS cells (10 uM, head 8 SD). Also, the “proliferation hit score, Low sera” value in the assay with HCT116 cells (Low sera, 1 uM, head 3 SD) is on record as 0.1255 SD; with HCT116 cells (Low sera, 10 uM, head 3 SD), −2.584 SD; with U2OS cells (setting [2]), −1.01 SD; in the assay with U2OS cells (setting [3]), 4.988 SD; in the assay on U2OS cells (Low sera, 1 uM, head 5 SD), 9.376 SD; in the assay with U2OS cells (Low sera, 10 uM, head 6 SD) it was −6.861 SD.
On to “SEQ ID NO: 34047: peptide hit of Table E; sequence only in Sequence Listing (MHINYFFFLKLFLSLQNLILALDLRRESLTRDETQ; listed as Homo sapiens)”, for which the “proliferation hit score, High sera” value in the assay with HCT116 cells (0.5 uM, head 3 SD) is reported as 0.5338 SD; in the assay with HCT116 cells (5 uM, head 3 sd) it was 0.008734 SD; with U2OS cells (5 uM, head 5 SD), −6.825 SD. Moreover, the “proliferation hit score, Low sera” value with HCT116 cells (setting [1]) is on record as 1.561 SD; in the assay with HCT116 cells (Low sera, 5 uM, head 2 SD) it was 0.3241 SD; in the assay on U2OS cells (setting [1]), 2.331 SD; with U2OS cells (Low sera, 5 uM, head 2 SD) it was −5.958 SD.
On to “SEQ ID NO: 38017: peptide hit of Table E; sequence only in Sequence Listing (GVFVVARDRRRRELRTGAFSLLLGVVALLPLCGKRIQALPRACGCGGPEVLVVPR; listed as Homo sapiens)”, for which the “proliferation hit score, High sera” value with HCT116 cells (0.5 uM, head 3 SD) was −0.9491 SD; with HCT116 cells (5 uM, head 3 sd), −1.457 SD; in the assay on U2OS cells (5 uM, head 5 SD) it was −3.812 SD. Moreover, the “proliferation hit score, Low sera” value in the assay on HCT116 cells (setting [1]) is −0.1996 SD; in the assay on HCT116 cells (Low sera, 5 uM, head 2 SD) it was −1.525 SD; in the assay with U2OS cells (setting [1]) it was 2.343 SD; with U2OS cells (Low sera, 5 uM, head 2 SD), −2.719 SD.
Consider “SEQ ID NO: 38073: peptide hit of Table E; sequence only in Sequence Listing (MTVSLFLLLATSQSQDGCCDSGSCPNSRQQEGHGAAPASSCLPIP; listed as Homo sapiens)”, for which the “proliferation hit score, High sera” value with HCT116 cells (0.5 uM, head 3 SD) was 0.3814 SD; with HCT116 cells (5 uM, head 3 sd), −0.2232 SD; in the assay with U2OS cells (5 uM, head 5 SD) it was −4.132 SD. The “proliferation hit score, Low sera” value is on record as 0.586 SD with HCT116 cells (setting [1]); 0.1141 SD in the assay with HCT116 cells (Low sera, 5 uM, head 2 SD); 3.652 SD with U2OS cells (setting [1]); −1.571 SD in the assay on U2OS cells (Low sera, 5 uM, head 2 SD).
Take “SEQ ID NO: 38076: ORF peptide; sequence only in Sequence Listing (MHLLLLPVIFLPWVLPQHKHTSATPGFSSEKQFMSETENQTANVKFY; listed as Homo sapiens)”: the “proliferation hit score, High sera” value in the assay with HCT116 cells (0.5 uM, head 3 SD) was −0.8521 SD; in the assay with HCT116 cells (5 uM, head 3 sd), −1.476 SD; in the assay with U2OS cells (5 uM, head 5 SD), −0.8798 SD. Further, the “proliferation hit score, Low sera” value with HCT116 cells (setting [1]) is given as 0.1011 SD; in the assay with HCT116 cells (Low sera, 5 uM, head 2 SD), −0.293 SD; with U2OS cells (setting [1]) it was 3.033 SD; in the assay with U2OS cells (Low sera, 5 uM, head 2 SD), 0.2974 SD.
For “SEQ ID NO: 38081: peptide hit of Table E; sequence only in Sequence Listing (MRRAWRPRLLGAALVAH; listed as Homo sapiens)”, the “proliferation hit score, High sera” value in the assay with HCT116 cells (0.1 uM, head 3 SD) is −0.4952 SD; with HCT116 cells (1 uM, head 2 SD) it was −0.4884 SD; with HCT116 cells (10 uM, head 4 SD), −0.5065 SD; in the assay on U2OS cells (1 uM, head 5 SD), −15.19 SD; with U2OS cells (10 uM, head 8 SD) it was −3.67 SD. Also, the “proliferation hit score, Low sera” value in the assay with HCT116 cells (Low sera, 1 uM, head 3 SD) is on record as −3.589 SD; in the assay on HCT116 cells (Low sera, 10 uM, head 3 SD), −2.477 SD; in the assay on U2OS cells (setting [2]), −3.47 SD; in the assay with U2OS cells (setting [3]) it was 2.082 SD; with U2OS cells (Low sera, 1 uM, head 5 SD), 1.521 SD; in the assay with U2OS cells (Low sera, 10 uM, head 6 SD), −2.322 SD.

B1: SEQ ID NO: 34508: ORF peptide; sequence only in Sequence Listing (peptide, listed as Homo sapiens)
chain: LPLYPLHRKWAGSGLLVFAAPAARAQQGPGEMATVPAPGRTGERALPPPHVSARASFLGSTLWM
As for B1, the “proliferation hit score, High sera” value with HCT116 cells (0.1 uM, head 3 SD) was −5.097 SD; in the assay with HCT116 cells (0.5 uM, head 3 SD), 0.2038 SD; in the assay on HCT116 cells (1 uM, head 2 SD) it was −2.867 SD; with HCT116 cells (5 uM, head 3 sd), −0.02329 SD; in the assay with HCT116 cells (10 uM, head 4 SD) it was −5.856 SD; in the assay on U2OS cells (1 uM, head 5 SD), −1.711 SD. For the same molecule, the “proliferation hit score, High sera” value in the assay with U2OS cells (5 uM, head 5 SD) was −0.8798 SD; with U2OS cells (10 uM, head 8 SD), −12.11 SD. The “proliferation hit score, Low sera” value in the assay on HCT116 cells (setting [1]) is listed as 0.9567 SD; with HCT116 cells (Low sera, 1 uM, head 3 SD) it was −1.6 SD; in the assay on HCT116 cells (Low sera, 5 uM, head 2 SD), 1.932 SD; in the assay on HCT116 cells (Low sera, 10 uM, head 3 SD) it was −3.628 SD; with U2OS cells (setting [2]) it was 1.335 SD; in the assay on U2OS cells (setting [3]), 3.475 SD. Further, the “proliferation hit score, Low sera” value is recorded as 5.043 SD with U2OS cells (setting [1]); 4.275 SD in the assay with U2OS cells (Low sera, 1 uM, head 5 SD); 1.344 SD in the assay with U2OS cells (Low sera, 5 uM, head 2 SD); −11.74 SD with U2OS cells (Low sera, 10 uM, head 6 SD).

B2: SEQ ID NO: 26298: peptide hit of Table E; sequence only in Sequence Listing (peptide, listed as Homo sapiens)
chain: VQSGKCESSVLGYSATCLPDMGRWRVSSVESWPFASTGGKLAIATAGTGTQAAPRPFLIRPPDSWALALALM
Take B2: the “proliferation hit score, Low sera” value with U2OS cells (setting [1]) is 2.391 SD and 2.95 SD.
